This is an account of results in patent US6432415B1, “Pharmaceutical gel and aerosol formulations and methods to administer the same to skin and mucosal surfaces” (Axrix Laboratories, Inc., priority 1999, dated 2002).

For orientation: solubility means how much of the substance goes into solution per volume.

Common to all, as to format: physicochemical
The nature of data set [1]: Solubility of Amlexanox in 95% ethanol with imidazole (visual observation). As to conditions: 200 mM imidazole vs no imidazole. Here is the method: Amlexanox (4.8 mg to 20.5 mg) was added to seven glass scintillation vials. 95% Ethanol (in 5-100 uL aliquots) with various concentrations of imidazole (0-200 mM) was added to the vials containing Amlexanox. The total volume of 95% ethanol added to result in Amlexanox solubilization (by visual observation) was recorded.

The nature of data set [2]: Solubility of Amlexanox in solvents and at different pH. Here is the method: To illustrate the many aspects of the present invention, it is provided herein several Examples of formulations which comprise a specific not-very-soluble drug known as Amlexanox or 2-amino-7-(1-methylethyl)-5-oxo-5H-[1]benzopyrano-[2,3-b]-pyridine-3-carboxylic acid. Amlexanox is not very soluble in lower alkyl alcohols (0.58 mg/mL, in dehydrated ethanol) or water (0.005 mg/mL). However, solubility of Amlexanox increases with pH. […] Thus, at any given time, Amlexanox may be present in the formulation as a solution or suspension or both.

A short description of data set [3]: Solubility of Propellant 152a in aqueous and ethanol/water solvents, with or without ethyl cellulose. Here is the method: In one aspect, the propellant is 1,1-difluoroethane also known as Propellant 152a, commercially available under the trade mark Dymel®. Propellant 152a is slightly soluble in aqueous solvents (solubility of less than 1% by weight).
The inventors have experimented with ethanol as a cosolvent to be used in conjunction with Propellant 152a. When water is added to the ethanol/Propellant 152a mixture, the solubility of Propellant 152a decreases. […] This unexpected increase in solubility was not observed when hydroxyethyl cellulose or hydroxypropyl cellulose was used instead of ethyl cellulose.

Each structure is given as a SMILES string. Converted amounts (≈) assume the structure as drawn.

On to `CC(C)c1ccc2oc3nc(N)c(C(=O)O)cc3c(=O)c2c1` [Amlexanox, 2-amino-7-(1-methylethyl)-5-oxo-5H-[1]benzopyrano-[2,3-b]-pyridine-3-carboxylic acid], for which the “solubility in 95% ethanol with 200 mM imidazole relative to absence of imidazole” value in data set [1] is recorded as “approximately 7.5 fold”. Besides, the solubility in data set [2] (aqueous buffer, pH 3.0) was found to be 12 µg/mL (≈ 40.2 µM); in data set [2] (in water) it was 5 µg/mL (≈ 16.8 µM); in data set [2] (organic solvent or mixture, in dehydrated ethanol) it was 580 µg/mL (≈ 1940 µM); in data set [2] (pH 5.96, aqueous buffer) it was 15300 µg/mL (≈ 51300 µM).
Regarding `CC(F)F` [Propellant 152a, 1,1-difluoroethane], the “solubility of Propellant 152a” value in data set [3] (aqueous solvents) is on record as “less than 1 % by weight”; in data set [3] (ethyl cellulose about 0.7% to about 1.4%, ethanol/water (80:20)), 62-64%; in data set [3] (ethyl cellulose about 0.75% to about 10% added to ethanol or ethanol/water mixtures) it was 62 to 64%; in data set [3] (mixture of ethanol/water (80:20), no ethyl cellulose) it was “about 49%”.
